Consider 1 compound from publication PMC3368874, “Characterization of 4-HNE Modified L-FABP Reveals Alterations in Structural and Functional Dynamics” (PLoS ONE, 2012).

For test [1], the system named is L-FABP. From the text: All protocols were approved by the Institutional Animal Care and Use Committee (IACUC) at the University of Colorado Anschutz Medical Campus. Male C57Bl/6J mice were fed a modified Lieber-DeCarli Diet (BioServ, Frenchtown, NJ) consisting of 45% fat-derived calories and 15% protein-derived calories with the remaining caloric content derived from either ethanol or maltose-dextrin. Mice were fed for a period of 6 weeks according to previous laboratory studies, [20]. At termination, the liver was harvested for whole tissue and histological evaluation as previously described, [21]. Subcellular fractions were isolated from whole liver tissue using sucrose gradient centrifugation.
200 ug of whole cell homogenates from both control and ethanol mice (n = 6/group) were incubated with 5 ug of mouse monoclonal ubiquitin antibody (Abcam, cat# ab411) for 2 hours at 4°C on a rotator to allow ubiquitin protein to bind to antibody. 100 ul of a 50% Protein G slurry (prepared and stored in 0.02% sodium azide and PBS, pH 7.4) was added to the reaction and incubated at 4°C rotating overnight. Samples were washed 5×5 minutes in PBST (PBS +[…]) and denatured in SDS-PAGE loading buffer at 95°C for 5 minutes. Immunoprecipitated protein was separated via SDS-PAGE and transferred to PVDF, and immunoblotted for L-FABP (Abcam, cat # 7847). Density of ubiquitinated bands were normalized to levels of L-FABP/β-Actin determined by immunoblotting.
Total RNA was isolated from […] of frozen tissue from control and ethanol-fed mice (n = 3) using RNeasy Mini Kits (Qiagen,Valencia, CA).

In another test the test system is FABP1. The settings on record: 4 week ramped ethanol feeding regimen; cited from earlier work.
The test system of test [2] is L-FABP. The settings on record: following ethanol consumption in rats; cited from earlier work.

Turning to `CCO` [ethanol], the “poly-ubiquitinated L-FABP normalized to total L-FABP” value in the test on L-FABP [1] (co-immunoprecipitation, ethanol diet 6 weeks, P<0.001, n = 6) is listed as “significant increase”. Moreover, the “decrease in FABP1 mRNA (RT-PCR)” value with L-FABP [1] (ethanol diet 6 weeks versus control) is 1.6 fold. Also, in the test on L-FABP [1] (ethanol livers, control 1.00±0.084, P<0.05, n = 3), the “relative expression of FABP1” value is on record as 0.617±0.069. The “reduction in L-FABP protein (1D Western Blot)” value in the test on L-FABP [1] (whole cell lysates, ethanol diet 6 weeks versus control, P<0.001, n = 6) is given as ~80%. Moreover, the “decrease in the mRNA of FABP1” value in the test with FABP1 is recorded as > 50%. Further, the “decrease in expression of L-FABP” value in the test on L-FABP [2] is reported as ~30%.
